Results taken from patent US5576436A, “Fluorescent ligands” (Pharmaceutical Discovery Corporation, priority 1994, dated 1996).
Read-outs that look alike come from different tables or passages of the source.

What was measured:
benzodiazepine receptors = details: cited from earlier work
Glycine = test: Fluorescent ligand binding, glycine receptor (strychnine-insensitive); details: Table I
Kappa 1 = test: Fluorescent ligand binding, kappa1 opioid receptor; details: result in words
kappa1 opioid receptor = test: Radioligand ([^3 H]U69,593) binding, kappa1 opioid receptor; details: read-out: IC50 value versus radioligand binding
Muscarinic-M1 [1] = test: Radioligand binding, muscarinic-M1; details: Table I; read-out: Radiolig. Kd:Ki
Muscarinic-M1 [2] = test: Fluorescent ligand binding, muscarinic-M1 receptor; details: Table I
Cannabinoid = test: Radioligand binding, cannabinoid receptor; details: Table I; read-out: Radiolig. Kd:Ki
NMDA [3] = test: Radioligand binding, NMDA; details: Table I; read-out: Radiolig. Kd:Ki
NMDA [4] = test: Fluorescent ligand binding, NMDA receptor complex; details: Table I
Method: NMDA RECEPTOR COMPLEX LIGAND (spectral shift compound) (PDC 014.041)
(§1) Recommended Assay Conditions:
Incubation buffer: 5 mM Hepes/Tris (pH 7.8 at 25° C.)
Spectra: 335 nm (ex) and 515 nm (em)
(§2) 1. Reconstitution: 10.0 ml of incubation buffer
3. Incubation Time: 2 hours at 25° C.
4. Measure fluorescence intensity: 335 nm (ex) and […]

Adenosine-A2a [5] = test: Fluorescent ligand binding, adenosine-A2a receptor; details: Table I
Method: Recommended Assay Conditions for ADENOSINE-A2A RECEPTOR LIGAND (PDC 018.075)
Incubation buffer: 50 mM Tris-HCL containing 10mM MgCl2, (pH 7.4 at 25° C.)
(§3) Spectra: 492 nm (ex) and 516 nm (em)
as §2
3. Incubation Time: 90 minutes at 25° C.

Adenosine-A2a [6] = test: Radioligand binding, adenosine-A2a; details: Table I; read-out: Radiolig. Kd:Ki
Peripheral Bzd [7] = test: Radioligand binding, peripheral benzodiazepine receptor; details: Table I; read-out: Radiolig. Kd:Ki
Peripheral Bzd [8] = test: Fluorescent ligand binding, peripheral benzodiazepine receptor; details: Table I
Method: PERIPHERAL BENZODIAZEPINE RECEPTOR LIGAND (PDC 018.091)
as §1
Incubation buffer: 50 Nm Tris-Citrate containing […] MgCL2 (pH 7.0 at 4° C.)
as §3, §2

Dopamine 2 [9] = test: Fluorescent ligand binding, dopamine 2 (direct fluorescence measurement); details: Table I
Dopamine 2 [10] = test: Radioligand binding, dopamine 2; details: Table I; read-out: Radiolig. Kd:Ki
Dopamine 1 [11] = test: Fluorescent ligand binding, dopamine 1 (direct fluorescence measurement); details: Table I
Dopamine 1 [12] = test: Radioligand binding, dopamine 1; details: Table I; read-out: Radiolig. Kd:Ki
[13] = density of binding of the ligand
[14] = centri., quench, read-out: Fluores. Kd
[15] = centrifugation, read-out: Fluores. Kd

**Q.** For `NCCCC(=O)O` [GABA], which “effect on [^3 H]alprazolam binding” value (benzodiazepine receptors; rat brain membranes) is on record?
**A.** Its value is “enhanced”.

**Q.** For `O=C(NCCCCCCNc1ccc([N+](=O)[O-])c2nonc12)c1cc(O)c2c(Cl)cc(Cl)cc2n1` [PDC 002.083], which Bmax (Glycine; [13]) is on record?
**A.** Its Bmax is 14.5 pmol/mg prot.

**Q.** What about the Kd (Glycine; read-out: Fluores. Kd, centri., quench) of the same compound?
**A.** Its Kd is 750 nM.

**Q.** What does the source list for `Cc1nnc2n1-c1ccc(Cl)cc1C(c1ccccc1)=NC2` [Alprazolam, alprazolam]?
**A.** specific to nonspecific (signal to noise) binding ratios (benzodiazepine receptors; nonequilibrium and equilibrium binding conditions): high; affinity for benzodiazepine receptors (benzodiazepine receptors; rat brain membranes, saturable and specific): low nanomolar affinity; selectivity in vitro for benzodiazepine receptors (benzodiazepine receptors; rat brain): selective and specific ligand

**Q.** What does the source list for `CN(C(=O)Cc1cc(Cl)c(Cl)cc1NC(=O)CCCNC(=O)c1ccc2c(c1)C(=O)OC21c2ccc(O)cc2Oc2cc(O)ccc21)[C@@H]1CCCC[C@H]1N1CCCC1` [1R,2R-trans-4,5-dichloro-2-(4-fluorescein-5-carboxamido)-n-butaniado)-(N-methyl)-2-(1-pyrrolidnyl)-cyclohexyl)benzeneacetamide]?
**A.** Measurement using the fluorescence assay (Kappa 1): confirmed the radioligand results; IC50 (kappa1 opioid receptor; 1R,2R enantiomer): 3230 nM; IC50 (kappa1 opioid receptor; bound in parentheses): > 1000 nM

**Q.** Which Ki (Muscarinic-M1 [1]) does the source give for `O=[N+]([O-])c1ccc(NCCN2CCOCC2)c2nonc12` [PDC 018.039] here?
**A.** The Ki was 1700 nM.

**Q.** And the Kd (Muscarinic-M1 [2]; [14])?
**A.** The Kd was 985 nM.

**Q.** What about the Bmax (Muscarinic-M1 [2]; [13]) of the same compound?
**A.** Its Bmax is 0.20 pmol/mg prot.

**Q.** With `CCCCC/C=C\C/C=C\C/C=C\C/C=C\CCCC(=O)NCCNS(=O)(=O)c1cccc2c(N(C)C)cccc12` [PDC 014.064] as the compound, how does the Ki (Cannabinoid) read?
**A.** Its Ki is 52 nM.

**Q.** Which Ki (Cannabinoid) does the source give for `CCCCC/C=C\C/C=C\C/C=C\C/C=C\CCCC(=O)NCCNc1ccc([N+](=O)[O-])c2nonc12` [PDC 014.063] here?
**A.** Its Ki is 52 nM.

**Q.** With `CN(C)c1cccc2c(S(=O)(=O)NCCCNC(Cc3ccccc3)c3ccccc3)cccc12` (centres unmarked) [PDC 014.041] as the compound, how does the Ki (NMDA [3]) read?
**A.** Its Ki is 45 nM.

**Q.** And the Kd (NMDA [4]; centri., spectral shift, read-out: Fluores. Kd)?
**A.** Its Kd is 1000 nM.

**Q.** What about the Bmax (NMDA [4]; [13]) of the same compound?
**A.** The Bmax was 1.9 pmol/mg prot.

**Q.** What does the source list for `CCNC(=O)[C@H]1O[C@@H](n2cnc3c(N)nc(NCCc4ccc(CCC(=O)NCCNC(=S)Nc5ccc6c(c5)C(=O)OC65c6ccc(O)cc6Oc6cc(O)ccc65)cc4)nc32)[C@H](O)[C@@H]1O` [PDC 018.075]?
**A.** Kd (Adenosine-A2a [5]; [15]): 57 nM; Bmax (Adenosine-A2a [5]; [13]): 2.3 pmol/mg prot.; Ki (Adenosine-A2a [6]): 15 nM

**Q.** Which Ki (Peripheral Bzd [7]) does the source give for `CCC(C)N(C)C(=O)c1cc2ccccc2c(-c2cc(NC(=O)c3ccc4c(c3)C(=O)OC43c4ccc(O)cc4Oc4cc(O)ccc43)ccc2F)n1` (centres unmarked) [PDC 018.091] here?
**A.** Its Ki is 2 nM.

**Q.** And the Kd (Peripheral Bzd [8]; [15])?
**A.** Its Kd is 40 nM.

**Q.** What about the Bmax (Peripheral Bzd [8]; [13]) of the same compound?
**A.** The Bmax was 2.3 pmol/mg prot.

**Q.** With `CCN(CC)CCNC(=O)c1cc(Cl)c(NC(=O)CCCCCNc2ccc([N+](=O)[O-])c3nonc23)cc1OC` [PDC 014.036] as the compound, how does the Kd (Dopamine 2 [9]; [14]) read?
**A.** Its Kd is 500 nM.

**Q.** What about the Bmax (Dopamine 2 [9]; [13]) of the same compound?
**A.** The Bmax was 0.13 pmol/mg prot.

**Q.** What about the Ki (Dopamine 2 [10]) of the same compound?
**A.** The Ki was 90 nM.

**Q.** For `O=[N+]([O-])c1ccc(NCCN2CCN(CCCN3c4ccccc4Sc4ccc(C(F)(F)F)cc43)CC2)c2nonc12` [PDC 014.043], which Kd (Dopamine 1 [11]; [14]) is on record?
**A.** Its Kd is 190 nM.

**Q.** What about the Bmax (Dopamine 1 [11]; [13]) of the same compound?
**A.** The Bmax was 69 pmol/mg prot.

**Q.** What about the Ki (Dopamine 1 [12]) of the same compound?
**A.** The Ki was 11 nM.
